Source: patent publication US11130756B2, “[1,2,4]Triazolo[4,3-A]pyridinyl substituted indole compounds” (BRISTOL-MYERS SQUIBB COMPANY, priority 2017, dated 2021)

Key:
Assay type in all cases: cell-based
human TLR9 = target: T1, human TLR9 (Homo sapiens, UniProt Q9NR96); test: TLR9 inhibition reporter assay (HEK-Blue, SEAP); conditions: HEK-Blue cells overexpressing human TLR9, ODN2006 5 nM, 22 hour incubation
T1 construct: host or cells: HEK-Blue cells
T1 sequence (Q9NR96 26-1032): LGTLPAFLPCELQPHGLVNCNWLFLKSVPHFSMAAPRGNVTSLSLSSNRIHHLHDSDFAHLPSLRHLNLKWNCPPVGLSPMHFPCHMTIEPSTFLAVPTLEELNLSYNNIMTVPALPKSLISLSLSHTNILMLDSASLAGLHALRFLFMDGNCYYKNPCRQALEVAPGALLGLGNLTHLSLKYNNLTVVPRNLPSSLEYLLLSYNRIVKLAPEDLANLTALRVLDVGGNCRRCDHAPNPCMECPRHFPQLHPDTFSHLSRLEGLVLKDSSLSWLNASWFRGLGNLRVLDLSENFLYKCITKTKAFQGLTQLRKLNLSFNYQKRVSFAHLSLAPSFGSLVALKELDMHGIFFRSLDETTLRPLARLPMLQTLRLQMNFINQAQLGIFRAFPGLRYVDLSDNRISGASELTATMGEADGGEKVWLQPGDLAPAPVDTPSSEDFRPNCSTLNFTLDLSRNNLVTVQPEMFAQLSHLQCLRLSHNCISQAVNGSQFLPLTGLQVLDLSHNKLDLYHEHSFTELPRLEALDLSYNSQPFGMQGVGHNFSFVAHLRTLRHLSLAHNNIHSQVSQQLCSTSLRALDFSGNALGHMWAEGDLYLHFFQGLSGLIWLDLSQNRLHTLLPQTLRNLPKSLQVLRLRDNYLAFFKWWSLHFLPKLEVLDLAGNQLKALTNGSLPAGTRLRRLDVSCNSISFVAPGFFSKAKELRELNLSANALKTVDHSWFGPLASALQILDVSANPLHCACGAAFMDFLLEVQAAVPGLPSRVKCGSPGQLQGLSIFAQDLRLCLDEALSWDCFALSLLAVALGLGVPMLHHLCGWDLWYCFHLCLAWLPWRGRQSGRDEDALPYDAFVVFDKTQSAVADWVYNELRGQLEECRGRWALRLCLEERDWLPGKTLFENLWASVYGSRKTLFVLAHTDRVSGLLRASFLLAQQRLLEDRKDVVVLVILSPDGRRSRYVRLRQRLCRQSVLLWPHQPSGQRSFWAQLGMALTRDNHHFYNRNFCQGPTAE
Protocol: (§1) TLR7/8/9 Inhibition Reporter Assays
(§2) HEK-Blue™-cells (Invivogen) overexpressing human TLR7, TLR8 or TLR9 receptors were used for screening inhibitors of these receptors using an inducible SEAP (secreted embryonic alkaline phosphatase) reporter gene under the control of the IFN-β minimal promoter fused to five NF-κB and AP-1-binding sites. Briefly, cells are seeded into Greiner 384 well plates (15000 cells per well for TLR7, 20,000 for TLR8 and 25,000 for TLR9) and then treated with test compounds in DMSO to yield a final dose response concentration range of 0.05 nM-50 μM. After a 30 minute compound pre-treatment at room temperature, the cells are then stimulated with a TLR7 ligand (gardiquimod at a final concentration of 7.5 μM), TLR8 ligand (R848 at a final concentration of 15.9 μM) or TLR9 ligand (ODN2006 at a final concentration of 5 nM) to activate NF-κB and AP-1 which induce the production of SEAP. After a 22 hour incubation at 37° C., 5% CO2, SEAP levels are determined with the addition of HEK-Blue™ Detection reagent (Invivogen), a cell culture medium that allows for detection of SEAP, according to manufacturer's specifications. The percent inhibition is determined as the % reduction in the HEK-Blue signal present in wells treated with agonist plus DMSO alone compared to wells treated with a known inhibitor.

human TLR8 = target: T2, human TLR8 (Homo sapiens, UniProt Q9NR97); test: TLR8 inhibition reporter assay (HEK-Blue, SEAP); conditions: HEK-Blue cells overexpressing human TLR8, R848 15.9 μM, 22 hour incubation
T2 construct: host or cells: HEK-Blue cells
T2 sequence (Q9NR97 27-1041): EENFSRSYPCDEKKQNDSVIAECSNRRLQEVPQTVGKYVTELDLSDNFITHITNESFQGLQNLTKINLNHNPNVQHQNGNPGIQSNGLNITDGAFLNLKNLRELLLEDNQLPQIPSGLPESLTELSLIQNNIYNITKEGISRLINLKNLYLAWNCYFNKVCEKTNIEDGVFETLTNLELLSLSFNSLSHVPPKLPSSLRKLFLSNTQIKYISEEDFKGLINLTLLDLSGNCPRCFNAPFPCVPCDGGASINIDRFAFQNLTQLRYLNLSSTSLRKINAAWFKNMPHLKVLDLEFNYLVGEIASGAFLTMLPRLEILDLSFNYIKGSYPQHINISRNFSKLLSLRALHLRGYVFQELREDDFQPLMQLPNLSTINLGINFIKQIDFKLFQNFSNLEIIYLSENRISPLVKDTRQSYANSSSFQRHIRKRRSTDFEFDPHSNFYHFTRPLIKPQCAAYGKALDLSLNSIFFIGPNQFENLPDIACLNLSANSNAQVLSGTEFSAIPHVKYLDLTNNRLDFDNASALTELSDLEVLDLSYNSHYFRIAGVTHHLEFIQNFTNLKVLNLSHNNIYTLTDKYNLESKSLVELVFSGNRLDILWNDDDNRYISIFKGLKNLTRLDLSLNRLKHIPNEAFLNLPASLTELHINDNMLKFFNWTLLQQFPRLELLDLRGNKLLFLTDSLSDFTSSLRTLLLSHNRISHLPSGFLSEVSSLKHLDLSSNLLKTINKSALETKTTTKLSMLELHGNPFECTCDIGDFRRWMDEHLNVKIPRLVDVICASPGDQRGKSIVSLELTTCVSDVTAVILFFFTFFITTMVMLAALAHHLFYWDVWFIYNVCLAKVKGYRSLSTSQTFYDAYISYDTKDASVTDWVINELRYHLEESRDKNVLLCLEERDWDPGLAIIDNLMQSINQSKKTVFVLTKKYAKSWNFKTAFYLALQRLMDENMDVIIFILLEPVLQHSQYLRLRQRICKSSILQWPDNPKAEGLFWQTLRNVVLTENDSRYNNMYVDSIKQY
Protocol: as §1, §2

human TLR7 = target: T3, human TLR7 (Homo sapiens, UniProt Q9NYK1); test: TLR7 inhibition reporter assay (HEK-Blue, SEAP); conditions: HEK-Blue cells overexpressing human TLR7, gardiquimod 7.5 μM, 22 hour incubation
T3 construct: host or cells: HEK-Blue cells
T3 sequence (Q9NYK1 27-1049): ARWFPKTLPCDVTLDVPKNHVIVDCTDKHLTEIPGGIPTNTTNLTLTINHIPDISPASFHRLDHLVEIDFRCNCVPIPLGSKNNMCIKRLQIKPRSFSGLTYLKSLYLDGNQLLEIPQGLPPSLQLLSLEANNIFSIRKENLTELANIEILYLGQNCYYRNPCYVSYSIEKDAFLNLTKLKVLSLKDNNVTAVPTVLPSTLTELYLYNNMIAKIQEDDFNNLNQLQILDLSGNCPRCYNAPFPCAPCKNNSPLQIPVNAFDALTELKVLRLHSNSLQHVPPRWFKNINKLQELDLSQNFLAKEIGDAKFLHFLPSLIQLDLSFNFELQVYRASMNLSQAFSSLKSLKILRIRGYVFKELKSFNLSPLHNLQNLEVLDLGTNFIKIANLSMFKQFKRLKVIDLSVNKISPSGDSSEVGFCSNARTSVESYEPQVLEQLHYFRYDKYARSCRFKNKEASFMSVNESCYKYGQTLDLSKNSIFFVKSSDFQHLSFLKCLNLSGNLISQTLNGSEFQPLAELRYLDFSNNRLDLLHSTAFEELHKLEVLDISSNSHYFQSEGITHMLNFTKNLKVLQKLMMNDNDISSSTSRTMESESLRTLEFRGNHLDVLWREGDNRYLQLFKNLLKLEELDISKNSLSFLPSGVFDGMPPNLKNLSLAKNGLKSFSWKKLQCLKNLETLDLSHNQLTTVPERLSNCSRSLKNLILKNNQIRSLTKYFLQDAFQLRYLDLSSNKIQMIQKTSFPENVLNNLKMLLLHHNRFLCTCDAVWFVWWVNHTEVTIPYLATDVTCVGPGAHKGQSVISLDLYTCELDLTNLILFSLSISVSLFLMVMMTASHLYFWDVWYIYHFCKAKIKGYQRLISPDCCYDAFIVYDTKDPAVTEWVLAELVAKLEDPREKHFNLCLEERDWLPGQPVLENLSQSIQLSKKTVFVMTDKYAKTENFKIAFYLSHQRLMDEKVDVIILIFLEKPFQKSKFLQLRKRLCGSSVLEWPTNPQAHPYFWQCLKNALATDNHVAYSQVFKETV
Protocol: as §1, §2

Row | Compound | IC50 (human TLR9) [nM] | IC50 (human TLR8) [nM] | IC50 (human TLR7) [nM]
1 | Cc1c(-c2[nH]c3ccc(C4CC(C)N(CCS(C)(=O)=O)C(C)C4)cc3c2C(C)C)cn2cnnc2c1C (single isomer, unassigned) [Example 111, 6-(5-(2,6-dimethyl-1-(2-(methylsulfonyl)ethyl)piperidin-4-yl)-3-isopropyl-1H-indol-2-yl)-7,8-dimethyl-[1,2,4]triazolo[4,3-a]pyridine] | 19200 | 113 | 23.9
2 | Cc1cc(-c2[nH]c3ccc(C4CCN(CCS(C)(=O)=O)CC4)cc3c2C(C)C)cn2c(C)nnc12 [Example 32, 6-(3-isopropyl-5-(1-(2-(methylsulfonyl)ethyl)piperidin-4-yl)-1H-indol-2-yl)-3,8-dimethyl-[1,2,4]triazolo[4,3-a]pyridine] | 3670 | 2.1 | 11.1
3 | Cc1cc2nncn2cc1-c1[nH]c2ccc(C3CCN(Cc4ncn(C)n4)CC3)cc2c1C(C)C [Example 20, 6-(3-isopropyl-5-(1-((1-methyl-1H-1,2,4-triazol-3-yl)methyl)piperidin-4-yl)-1H-indol-2-yl)-7-methyl-[1,2,4] triazolo[4,3-a]pyridine] | 19600 | 408 | 69.6
4 | Cc1nnc2ccc(-c3[nH]c4ccc(C5CCN(C6COC6)CC5)cc4c3C(C)C)cn12 [Example 67, 6-(3-isopropyl-5-(1-(oxetan-3-yl)piperidin-4-yl)-1H-indol-2-yl)-3-methyl-[1,2,4]triazolo[4,3-a]pyridine] | 10100 | 16.6 | 60.3
5 | Cc1c(-c2[nH]c3ccc(C4CCN(CCS(C)(=O)=O)CC4)cc3c2C(C)C)cn2cnnc2c1Cl [Example 46, 8-chloro-6-(3-isopropyl-5-(1-(2-(methylsulfonyl)ethyl)piperidin-4-yl)-1H-indol-2-yl)-7-methyl-[1,2,4]triazolo[4,3-a]pyridine] | 8910 | 8.6 | 2.1
6 | Cc1c(-c2[nH]c3ccc(C4CCN(Cc5ncn(C)n5)CC4)cc3c2C(C)C)ccc2nncn12 [Example 26, 6-(3-isopropyl-5-(1-((1-methyl-1H-1,2,4-triazol-3-yl)methyl)piperidin-4-yl)-1H-indol-2-yl)-5-methyl-[1,2,4]triazolo[4,3-a]pyridine] | 12400 | 27.9 | 117

Stronger by IC50 (human TLR9), values ahead:

Row | IC50 (human TLR9) [nM] | IC50 (human TLR8) [nM] | IC50 (human TLR7) [nM] | Compound
7 | 376 | 35.8 | 1.2 | COc1cc(-c2[nH]c3ccc(C4CCN(C)CC4)cc3c2C(C)C)cn2cnnc12 [Example 96, 6-(3-isopropyl-5-(1-methylpiperidin-4-yl)-1H-indol-2-yl)-8-methoxy-[1,2,4]triazolo[4,3-a)pyridine]
8 | 2770 | 31.4 | 44.7 | CNC(=O)CN1CCC(c2ccc3[nH]c(-c4ccc5nnc(C)n5c4)c(C(C)C)c3c2)CC1 [Example 17, 2-(4-(3-isopropyl-2-(3-methyl-[1,2,4]triazolo[4,3-a]pyridin-6-yl)-1H-indol-5-yl)piperidin-1-yl)-N-methylacetamide]
9 | 727 | 12.8 | 3.8 | Cc1cc(-c2[nH]c3ccc(C4CCN(CC#N)CC4)cc3c2C(C)C)cn2c(C)nnc12 [Example 31, 2-(4-(2-(3,8-dimethyl-[1,2,4]triazolo[4,3-a]pyridin-6-yl)-3-isopropyl-1H-indol-5-yl)piperidin-1-yl)acetonitrile]
10 | 1790 | 12.1 | 1 | Cc1c(-c2[nH]c3ccc(C4CCN(C)CC4)cc3c2C(C)C)cn2cnnc2c1C [Example 98, 6-(3-isopropyl-5-(1-methylpiperidin-4-yl)-1H-indol-2-yl)-7,8-dimethyl-[1,2,4]triazolo[4,3-a]pyridine]
11 | 99 | 19.5 | 1.9 | COc1cc(-c2[nH]c3ccc(C4CCN(CC(=O)N(C)C)CC4)cc3c2C(C)C)cn2cnnc12 [Example 54, 2-(4-(3-isopropyl-2-(8-methoxy-[1,2,4]triazolo[4,3-a]pyridin-6-yl)-1H-indol-5-yl)piperidin-1-yl)-N,N-dimethylacetamide]
12 | 3530 | 2 | 1.1 | Cc1c(-c2[nH]c3ccc(C4CCN(CC5(C)COC5)CC4)cc3c2C(C)C)cn2cnnc2c1C [Example 79, 6-(3-isopropyl-5-(1-((3-methyloxetan-3-yl)methyl)piperidin-4-yl)-1H-indol-2-yl)-7,8-dimethyl-[1,2,4]triazolo[4,3-a]pyridine]
